Patent US8853359B2, “Endokinin C/D-derived peptides” (University of Miyazaki, priority 2009, dated 2014)

Columns and labels:
Assay type in all cases: in vivo, rat
[1] = test system: substance P-induced scratching behavior; test: substance P-induced scratching behavior after intrathecal pre-administration of test peptide; settings: 10^-3M peptide
Method: In Example 1, 10^−3M (10 nmol/10 μl) EKC/D or D-EKC/D (1), (2) or (3) was administered to intrathecally catheterized rats via catheters. After the predetermined time periods denoted on the horizontal axis in FIG. 1, the numbers of scratching events (scratching behavior) induced by intrathecal administration of 10^−3M (10 nmol/10 μl) substance P (hereafter, referred to as “SP”) were determined. Here, the expression “10^−3M (10 nmol/10 μl) EKC/D or D-EKC/D (1), (2), or (3) was administered” refers to a situation in which 10 μl in total of a solution (that is, 10^−3M solution) containing 10 nmol of EKC/D or D-EKC/D (1), (2), or (3) was all administered. The expression, “ . . . administration of 10^−3M substance P (10 nmol/10 μl)” refers to a situation in which 10 μl in total of a solution (that is, 10^−3M solution) containing 10 nmol of the substance was all administered. The same similarly applies below.
Meanwhile, saline (10 μl) was intrathecally administered to intrathecally catheterized rats via catheters and then, after 30 minutes, 10^−3M SP (10 nmol/10 μl) was intrathecally administered to the rats. The number of the thus induced scratching events was determined to be the number of scratching events in the control group. The control group is denoted with saline-4-SP in FIG. 1.
The vertical axis of the graph in FIG. 1 indicates changes in the numbers of scratching events (represented by relative values) due to administration of 10^−3M EKC/D or D-EKC/D (1), (2), or (3) when the number of scratching events (of untreated rats in a control group) induced by intrathecal administration of 10^−3M substance P was determined to be 100%. Meanwhile, the horizontal axis indicates the intervals between the administration of EKC/D, D-EKC/D (1), (2), or (3) and 10^−3M substance P. […]
The test was conducted with procedures similar to those in Example 1, except for 4 hours of interval between the administration of each test peptide and the administration of substance P. The concentration of each test peptide and that of substance P for administration were determined to be 10^−3M (10 nmol/10 μl), similarly to Example 1. The number of scratching events in the control group was determined with procedures similar to those in Example 1, such that substance P was administered at 30 minutes after administration of saline (10 μl) and then the number was determined.

[2] = test system: formalin-induced pain behavior; test: formalin-induced pain behavior (flinching) after intrathecal pre-administration of peptide
Method: In Example 5, 10^−3M (10 nmol/10 μl) D-EKC/D (3), (5), or (7), Spantide I, or saline (10 μl) was administered to intrathecally catheterized rats via catheters and then 4 hours later, 50 μl of 2% formalin was administered subcutaneously to hind paws of rats. The number of flinching (pain behavior) was determined for 60 minutes after formalin administration, so that the degree of pain could be evaluated. During the 10-minute period after formalin administration (referred to as phase I), pain behavior was measured once every 2 minutes (1 minute per measurement). During the period from 10 minutes to 60 minutes after formalin administration (referred to as phase II), pain behavior was measured once every 5 minutes (1 minute per measurement), so that the degree of pain could be evaluated. During phase I, behavior (phasic pain) resulting from chemical stimulation accompanying formalin administration was observed. During phase II, tonic pain following the phasic pain was observed.
The horizontal axis indicates time (minutes) after formalin administration and the vertical axis indicates the measured number of pain behavior per minute.

[3] = test system: carrageenan-induced inflammation; test: carrageenan-induced increase in paw size after intrathecal pre-administration of peptide
Method: (§1) In Example 6, 10^−3M (10 nmol/10 μl) D-EKC/D (3), (5), or (7), Spantide I, or saline (10 μl) was administered to intrathecally catheterized rats via catheters. Four hours later, 100 μl of 2% carrageenan (2 mg/100 μl) was subcutaneously administered to rat plantar.
Paw size was measured with time for 60 minutes after carrageenan administration. The paw size (control) before carrageenan administration was designated as the basal level, and the increases in paw size were then calculated.

[4] = test system: carrageenan-induced thermal hyperalgesia; test: withdrawal latency to noxious thermal stimulation after carrageenan, intrathecal pre-administration of peptide; settings: 10^-3M (10 nmol/10 μl) peptide intrathecal; 2% carrageenan 4 hours later; FIG. 9B
Method: as §1
Meanwhile, noxious thermal stimulation was applied to paw plantar using infrared rays at 10-minute intervals after carrageenan administration. The time (latency period) required for withdrawal response to take place was measured. The latency period before untreated rats following noxious thermal stimulation was designated as the control latency period.

Glu-His-Thr-Phe-Gln-DTrp-Leu-Leu-NH2 (EHTFQXLL; HELM PEPTIDE1{E.H.T.F.Q.[dW].L.L.[am]}$$$$V2.0; N-terminus assumed; SMILES CC(C)C[C@H](NC(=O)[C@H](CC(C)C)NC(=O)[C@@H](Cc1c[nH]c2ccccc12)NC(=O)[C@H](CCC(N)=O)NC(=O)[C@H](Cc1ccccc1)NC(=O)[C@@H](NC(=O)[C@H](Cc1c[nH]cn1)NC(=O)[C@@H](N)CCC(=O)O)[C@@H](C)O)C(N)=O) [D-EKC/D (5)]
scratching behavior induced by substance P ([1]; Example 2, FIG. 2, SP 4 hours after peptide, control about 380 scratching): almost never induced
suppressive effects on scratching as administration interval is prolonged ([1]; Example 2, FIG. 2, interval 8 hours and then 14 hours): gradually attenuated
scratching behavior induced by substance P / suppressive effects ([1]; Example 3, FIG. 3, SP 4 hours after peptide, control 380 scratching): attenuated
numbers of pain behavior during phase I ([2]; 10^-3M (10 nmol/10 μl) peptide intrathecal, 2% formalin 4 hours later, 0-10 minutes after formalin): significantly decreased
numbers of pain behavior during phase II ([2]; 10^-3M (10 nmol/10 μl) peptide intrathecal, 2% formalin 4 hours later, 10-60 minutes after formalin): significantly decreased
suppressing effects on formalin-induced pain behavior compared with Spantide I ([2]; 10^-3M intrathecal, formalin 4 hours later): sustained longer compared with the effects of Spantide I
rate of increase of paw sizes ([3]; 10^-3M (10 nmol/10 μl) peptide intrathecal, 2% carrageenan 4 hours later, FIG. 9A): significant decreases
effects on paw size and withdrawal time compared with Spantide I ([3]; 10^-3M intrathecal, carrageenan 4 hours later): sustained to a greater extent than the effects of Spantide I
withdrawal time (latency period) [4]: significant increases
